Assay results taken from patent publication US10941157B2, “Pesticidal compositions and uses thereof” (Gilead Apollo, LLC, priority 2015, dated 2021).
In brackets after ≈: the same amount, converted by molar mass.

How the values were obtained:
Botrtyis cinerea (Bc) = test: In vitro pathogen growth inhibition assay, Bc; assay type: cell-based; conditions: 48 h, ≥90% inhibition; 48 hours vs 2% DMSO control; read-out: Compound Concentration (ppm) sufficient for ≥90% inhibition of growth, Bc
Outline: (§1)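 Value reported is the compound concentration reaching ≥90% growth inhibition, from OD readings at 24 and 48 h after blank subtraction, confirmed visually. Inoculum was spores diluted in 17% V8 medium, except Rs, using 1.5 mm mycelial plugs in ¼ PDB; actual compound concentration corrected via OD600.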

[1] = tested on: Collectotrichum graminicola (Cg); test: In vitro pathogen growth inhibition assay, Cg; assay type: cell-based; conditions: 48 h, ≥90% inhibition; 48 hours vs 2% DMSO control; read-out: Compound Concentration (ppm) sufficient for ≥90% inhibition of growth, Cg
Outline: as §1

Diplodia maydis (Dm) = test: In vitro pathogen growth inhibition assay, Dm; assay type: cell-based; conditions: Stenocarpella maydis, 48 h, ≥90% inhibition; 48 hours vs 2% DMSO control; read-out: Compound Concentration (ppm) sufficient for ≥90% inhibition of growth, Dm
Outline: as §1

[2] = tested on: Fusarium moniliforme (Fm); test: In vitro pathogen growth inhibition assay, Fm; assay type: cell-based; conditions: Fusarium verticillioides; ≥90% inhibition; 48 hours vs 2% DMSO control; read-out: Compound Concentration (ppm) sufficient for ≥90% inhibition of growth, Fm
Outline: as §1

[3] = tested on: Fusarium virguliforme (Fv); test: In vitro pathogen growth inhibition assay, Fv; assay type: cell-based; conditions: ≥90% inhibition, 48 hours vs 2% DMSO control, read-out: Compound Concentration (ppm) sufficient for ≥90% inhibition of growth, Fv
Outline: as §1

[4] = tested on: Phytophthora capsici (Pc); test: In vitro pathogen growth inhibition assay, Pc; assay type: cell-based; conditions: 48 h, ≥90% inhibition, 48 hours vs 2% DMSO control, read-out: Compound Concentration (ppm) sufficient for ≥90% inhibition of growth, Pc
Outline: as §1

Rhizoctonia solani (Rs) = test: In vitro pathogen growth inhibition assay, Rs (mycelial plugs); assay type: cell-based; conditions: Rhizoctonia solani, 48 h, ≥90% inhibition; mycelial plugs; 48 hours vs 2% DMSO control; read-out: Compound Concentration (ppm) sufficient for ≥90% inhibition of growth, Rs
Outline: as §1

Septoria tritici (St) = test: In vitro pathogen growth inhibition assay, St; assay type: cell-based; conditions: Zymoseptoria tritici, 48 h, ≥90% inhibition; 48 hours vs 2% DMSO control; read-out: Compound Concentration (ppm) sufficient for ≥90% inhibition of growth, St
Outline: as §1

[5] = tested on: Blumeria graminis f. sp. hordei; test: Foliar protection test for barley powdery mildew control; assay type: in vivo; conditions: foliar spray on Hordeum vulgare cv. Perry, inoculated 24 hours after treatment, evaluated 7 days later
Experimental: Plants (Hordeum vulgare cv. Perry) were grown for 6 days in 2-inch square pots containing Metromix 200 medium amended with fertilizer. […] After inoculation with the pathogen of Blumeria graminis f. sp. hordei, plants were kept at conditions of 20 to 22° C., 70% relative humidity, and 200 uM of light to facilitate infection and disease development. […] An atomizer was used for applying the solution onto both sides of the leaves until thoroughly wetted. […] At 24 hours after treatment, the plants were moved to a cooler chamber and inoculated by shaking well-colonized, untreated stock plants above the treated plants. This allowed producing a settling cloud of spores and resulting in uniform infection. Efficacy was evaluated in 7 days later by examining leaves for colonization and growth of mildew. Table 4 lists the results of barley powdery mildew control at a compound concentration of 10 ppm or lower.

Sphaerotheca fuliginea = test: Foliar protection for cucumber powdery mildew control; assay type: in vivo; conditions: foliar spray on Cucumis sativus cv. Straight Eight, inoculated 24 hours after treatment, evaluated 7 days later
Experimental: Plants (Cucumis sativus cv. Straight Eight) were grown for 10 days in 2.5-inch square pots containing Metromix 200 medium amended with fertilizer. For propagation, plants were maintained in a growth chamber at conditions of 23 to 27° C., 16 hour light cycle, ambient humidity, and with sub-irrigation as needed. After inoculation with the pathogen of Sphaerotheca fuliginea, plants were kept at conditions of 23 to 27° C., 16 hour light cycle, 60% relative humidity, and with sub-irrigation as needed to facilitate infection and disease development. […] An atomizer was used for applying the solution onto both sides of the leaves until thoroughly wetted. […] At 24 hours after treatment, the plants were moved to a cooler chamber and inoculated by shaking well-colonized, untreated stock plants above the treated plants. This allowed producing a settling cloud of spores and resulting in uniform infection. Inoculated plants were kept near other sporulating stock plants to allow for infection of newly emerging leaves. Efficacy was evaluated in 7 days later by examining leaves for colonization and growth of mildew. Table 5 lists the results of cucumber powdery mildew control at a compound concentration of 10 ppm or lower.

[6] = tested on: Mycosphaerella graminicola (synthetic Septoria tritici); test: Foliar protection test for wheat septoria leaf blotch control; assay type: in vivo; conditions: foliar spray on Triticum aestivum cv. WinterHawk, inoculated 1 hour after treatment, evaluated 16 days later
Fusarium graminearum = assay type: in vivo; conditions: spray on flowering Triticum aestivum cv. Samson, inoculated 24 hours after treatment, evaluated 14 days later
Puccinia triticina = test: Foliar protection test for wheat leaf rust control; assay type: in vivo; conditions: foliar application to wheat (Triticum aestivum cv. Winterhawk), evaluated 10 days later
Phakopsora pachyrhizi = test: Foliar protection test for Asian soybean rust control; assay type: in vivo; conditions: foliar application to soybean (Glycine max AG4832), percent disease area evaluated 14 days later

SMILES	IC90 (Botrtyis cinerea (Bc))	IC90 [1]	IC90 (Diplodia maydis (Dm))	IC90 [2]	IC90 [3]	IC90 [4]	IC90 (Rhizoctonia solani (Rs))	IC90 (Septoria tritici (St))	Barley Powdery Mildew Control at a compound concentration of 10 ppm or lower [5]	Cucumber Powdery Mildew Control at a compound concentration of 10 ppm or lower (Sphaerotheca fuliginea)	Septoria Leaf Blotch Control at a compound concentration of 25 ppm or lower [6]	Wheat Fusarium Head Blight Control at a compound concentration of 25 ppm or lower (Fusarium graminearum)	Wheat Leaf Rust Control at a compound concentration of 10 ppm or lower (Puccinia triticina)	Asian Soybean Rust Control at a compound concentration of 25 ppm or lower (Phakopsora pachyrhizi)
COCCO[C@@H](Cn1c(=O)n(C(C)C(=O)NC(C)C)c(=O)c2c(C)c(-n3nccn3)sc21)c1cc(F)ccc1OC (stereo partly drawn) [Compound I-082, 2-(1-((R)-2-(5-fluoro-2-methoxyphenyl)-2-(2-methoxyethoxy)ethyl)-5-methyl-2,4-dioxo-6-(2H-1,2,3-triazol-2-yl)-1,4-dihydrothieno[2,3-d]pyrimidin-3 (2H)-yl)-N-isopropylpropanamide]	2 µg/mL (≈ 3.4 µM)	0.4 µg/mL (≈ 0.68 µM)	0.4 µg/mL (≈ 0.68 µM)	0.08 µg/mL (≈ 0.136 µM)	0.4 µg/mL (≈ 0.68 µM)	10 µg/mL (≈ 17 µM)	0.24 µg/mL (≈ 0.408 µM)	30 µg/mL (≈ 51 µM)	AA (≥85% control of barley powdery mildew)	AA (≥85% control of cucumber powdery mildew)	AA (≥85% control of wheat septoria leaf blotch)	C (from 25 to 49% control of wheat fusarium head blight)	B (from 50 to 69% control of wheat leaf rust)	B (from 50 to 69% control of Asian soybean rust)
COc1ccc(F)cc1[C@H](Cn1c(=O)n([C@@H](C)C(=O)N(C)C(C)C)c(=O)c2c(C)c(-n3nccn3)sc21)OCCO [Compound I-089, (S)-2-(1-((R)-2-(5-fluoro-2-methoxyphenyl)-2-(2-hydroxyethoxy)ethyl)-5-methyl-2,4-dioxo-6-(2H-1,2,3-triazol-2-yl)-1,4-dihydrothieno[2,3-d]pyrimidin-3 (2H)-yl)-N-isopropyl-N-methylpropanamide]	> 0.4 µg/mL	> 0.4 µg/mL	2 µg/mL (≈ 3.4 µM)	0.08 µg/mL (≈ 0.136 µM)	> 0.4 µg/mL	≥ 50 µg/mL	0.08 µg/mL (≈ 0.136 µM)	≥ 10 µg/mL	B (from 50 to 69% control of barley powdery mildew)	AA (≥85% control of cucumber powdery mildew)	C (from 25 to 49% control of wheat septoria leaf blotch)	D (<25% control of wheat fusarium head blight)	AA (≥85% control of wheat leaf rust)	A (from 70% to 84% control of Asian soybean rust)
COc1ccc(F)cc1[C@H](Cn1c(=O)n([C@H](C)C(=O)N(C)C(C)C)c(=O)c2c(C)c(-n3nccn3)sc21)OCCO [Compound I-090, (R)-2-(1-((R)-2-(5-fluoro-2-methoxyphenyl)-2-(2-hydroxyethoxy)ethyl)-5-methyl-2,4-dioxo-6-(2H-1,2,3-triazol-2-yl)-1,4-dihydrothieno[2,3-d]pyrimidin-3 (2H)-yl)-N-isopropyl-N-methylpropanamide]	2 µg/mL (≈ 3.4 µM)	0.08 µg/mL (≈ 0.136 µM)	> 0.08 µg/mL	0.08 µg/mL (≈ 0.136 µM)	> 0.4 µg/mL	2 µg/mL (≈ 3.4 µM)	0.08 µg/mL (≈ 0.136 µM)	≥ 2 µg/mL	A (from 70% to 84% control of barley powdery mildew)	A (from 70% to 84% control of cucumber powdery mildew)	A (from 70% to 84% control of wheat septoria leaf blotch)	D (<25% control of wheat fusarium head blight)	AA (≥85% control of wheat leaf rust)	B (from 50 to 69% control of Asian soybean rust)
COc1ccc(F)cc1[C@H](Cn1c(=O)n([C@H](C)C(=O)NC2CCC2)c(=O)c2c(C)c(-n3nccn3)sc21)OCCO [Compound I-092, (R)—N-cyclobutyl-2-(1-((R)-2-(5-fluoro-2-methoxyphenyl)-2-(2-hydroxyethoxy)ethyl)-5-methyl-2,4-dioxo-6-(2H-1,2,3-triazol-2-yl)-1,4-dihydrothieno[2,3-d]pyrimidin-3(2H)-yl)propanamide]	0.4 µg/mL (≈ 0.682 µM)	0.08 µg/mL (≈ 0.136 µM)	0.4 µg/mL (≈ 0.682 µM)	0.08 µg/mL (≈ 0.136 µM)	> 0.4 µg/mL	2 µg/mL (≈ 3.41 µM)	0.08 µg/mL (≈ 0.136 µM)	≥ 2 µg/mL	C (from 25 to 49% control of barley powdery mildew)	AA (≥85% control of cucumber powdery mildew)	B (from 50 to 69% control of wheat septoria leaf blotch)	C (from 25 to 49% control of wheat fusarium head blight)	AA (≥85% control of wheat leaf rust)	B (from 50 to 69% control of Asian soybean rust)
COCCCO[C@@H](Cn1c(=O)n([C@H](C)C(=O)NC(C)C)c(=O)c2c(C)c(-n3nccn3)sc21)c1cc(F)ccc1OC [Compound I-094, (R)-2-(1-((R)-2-(5-fluoro-2-methoxyphenyl)-2-(3-methoxypropoxy)ethyl)-5-methyl-2,4-dioxo-6-(2H-1,2,3-triazol-2-yl)-1,4-dihydrothieno[2,3-d]pyrimidin-3 (2H)-yl)-N-isopropylpropanamide]	0.08 µg/mL (≈ 0.133 µM)	0.08 µg/mL (≈ 0.133 µM)	> 0.4 µg/mL	0.08 µg/mL (≈ 0.133 µM)	0.08 µg/mL (≈ 0.133 µM)	> 50 µg/mL	0.08 µg/mL (≈ 0.133 µM)	≥ 10 µg/mL	AA (≥85% control of barley powdery mildew)	AA (≥85% control of cucumber powdery mildew)	A (from 70% to 84% control of wheat septoria leaf blotch)	A (from 70% to 84% control of wheat fusarium head blight)	C (from 25 to 49% control of wheat leaf rust)	C (from 25 to 49% control of Asian soybean rust)
